Assay results: patent US20090036448A1, “PYRIMIDINE DERIVATIVES AND METHODS OF TREATMENT RELATED TO THE USE THEREOF” (TAISHO PHARMECUTICAL CO., LTD., priority 2004, published 2009)

These compounds were tested against MCH receptor (Homo sapiens, UniProt Q99705) (assay: Receptor binding assay with Radiolabelled MCH Ligand). Conditions: class by percent of control at 10^-7 M or IC50.
Set-up: expressed in transfected cells; host or cells: 293 cells (human kidney, ATCC), transient transfection; crude membranes
Method in brief: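 Membranes from 293 cells transiently transfected with human MCH receptor competed test compounds against a radiolabelled MCH ligand in Tris-HCl pH 7.4 with MgCl2 and EDTA for 60–120 min at room temperature. Filtration and scintillation counting followed, with cold MCH defining nonspecific binding. IC50 came from logit-log plots of %B/B0, and Ki from the Cheng-Prusoff equation.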

Sequence of MCH receptor (Q99705 whole entry): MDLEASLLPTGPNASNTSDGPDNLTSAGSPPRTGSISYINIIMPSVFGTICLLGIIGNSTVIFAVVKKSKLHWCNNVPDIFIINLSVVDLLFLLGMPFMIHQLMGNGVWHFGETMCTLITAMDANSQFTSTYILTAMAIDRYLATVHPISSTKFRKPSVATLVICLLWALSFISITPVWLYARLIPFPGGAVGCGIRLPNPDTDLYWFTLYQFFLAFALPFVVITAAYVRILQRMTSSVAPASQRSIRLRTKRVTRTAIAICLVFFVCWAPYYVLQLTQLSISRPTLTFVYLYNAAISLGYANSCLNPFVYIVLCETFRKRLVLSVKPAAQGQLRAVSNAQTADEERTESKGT

SMILES	class
Cc1nc(N[C@H]2CC[C@@H](NC(=O)Cc3c[nH]c4ccc(OCc5ccccc5)cc34)CC2)cc(N(C)C)n1 [compound 318]	3 (Class 3: The value of percent of control at 10^−7 M was more than 60% or the value of IC50 was more than 200 nM.)
Cc1cccc(NC(=O)c2ccccc2C(=O)N[C@H]2CC[C@@H](Nc3cc(N(C)C)nc(C)n3)CC2)c1 [compound 319]	3 (Class 3: The value of percent of control at 10^−7 M was more than 60% or the value of IC50 was more than 200 nM.)
Cc1nc(N[C@H]2CC[C@@H](NC(=O)c3cccc4c(=O)c(C)c(-c5ccccc5)oc34)CC2)cc(N(C)C)n1 [compound 320]	3 (Class 3: The value of percent of control at 10^−7 M was more than 60% or the value of IC50 was more than 200 nM.)
Cc1nc(N[C@H]2CC[C@@H](NC(=O)c3ccccc3C(=O)c3cc(C(F)(F)F)cc(C(F)(F)F)c3)CC2)cc(N(C)C)n1 [compound 322]	3 (Class 3: The value of percent of control at 10^−7 M was more than 60% or the value of IC50 was more than 200 nM.)
Cc1nc(N[C@H]2CC[C@@H](NC(=O)c3ccccc3C(=O)c3sc4ccccc4c3C)CC2)cc(N(C)C)n1 [compound 323]	3 (Class 3: The value of percent of control at 10^−7 M was more than 60% or the value of IC50 was more than 200 nM.)
Cc1nc(N[C@H]2CC[C@@H](NC(=O)c3ccc4c(c3)C(=O)c3ccccc3-4)CC2)cc(N(C)C)n1 [compound 324]	3 (Class 3: The value of percent of control at 10^−7 M was more than 60% or the value of IC50 was more than 200 nM.)
Cc1nc(N[C@H]2CC[C@@H](NC(=O)c3ccccc3-c3ccccc3)CC2)cc(N(C)C)n1 [compound 325]	3 (Class 3: The value of percent of control at 10^−7 M was more than 60% or the value of IC50 was more than 200 nM.)
Cc1nc(N[C@H]2CC[C@@H](NC(=O)c3ccc(Oc4ccccc4)cc3)CC2)cc(N(C)C)n1 [compound 326]	3 (Class 3: The value of percent of control at 10^−7 M was more than 60% or the value of IC50 was more than 200 nM.)
Cc1nc(N[C@H]2CC[C@@H](NC(=O)C3c4ccccc4Oc4ccccc43)CC2)cc(N(C)C)n1 [compound 327, N-(cis-4-{[6-(dimethylamino)-2-methylpyrimidin-4-yl]amino}cyclohexyl)-9H-xanthene-9-carboxamide]	3 (Class 3: The value of percent of control at 10^−7 M was more than 60% or the value of IC50 was more than 200 nM.)
Cc1nc(N[C@H]2CC[C@@H](NC(=O)c3ccccc3C(=O)N[C@@H](C)c3ccccc3)CC2)cc(N(C)C)n1 [compound 328]	3 (Class 3: The value of percent of control at 10^−7 M was more than 60% or the value of IC50 was more than 200 nM.)
Cc1nc(N[C@H]2CC[C@@H](NC(=O)c3ccc(OCc4ccccc4)cc3)CC2)cc(N(C)C)n1 [compound 329]	3 (Class 3: The value of percent of control at 10^−7 M was more than 60% or the value of IC50 was more than 200 nM.)
Cc1ccc(C(=O)c2ccccc2C(=O)N[C@H]2CC[C@@H](Nc3cc(N(C)C)nc(C)n3)CC2)cc1 [compound 330]	3 (Class 3: The value of percent of control at 10^−7 M was more than 60% or the value of IC50 was more than 200 nM.)
Cc1nc(N[C@H]2CC[C@@H](NC(=O)c3ccccc3COc3ccccc3)CC2)cc(N(C)C)n1 [compound 331, N-(cis-4-{[6-(dimethylamino)-2-methylpyrimidin-4-yl]amino}cyclohexyl)-[(2-phenyloxy)methyl]benzamide]	3 (Class 3: The value of percent of control at 10^−7 M was more than 60% or the value of IC50 was more than 200 nM.)
Cc1nc(N[C@H]2CC[C@@H](NC(=O)c3ccccc3C(=O)Nc3cccc4ccccc34)CC2)cc(N(C)C)n1 [compound 332]	3 (Class 3: The value of percent of control at 10^−7 M was more than 60% or the value of IC50 was more than 200 nM.)
Cc1nc(N[C@H]2CC[C@@H](NC(=O)c3ccc4cc5ccccc5cc4c3)CC2)cc(N(C)C)n1 [compound 333]	3 (Class 3: The value of percent of control at 10^−7 M was more than 60% or the value of IC50 was more than 200 nM.)
CCCCCCCc1ccc(-c2ccc(C(=O)N[C@H]3CC[C@@H](Nc4cc(N(C)C)nc(C)n4)CC3)cc2)cc1 [compound 334]	3 (Class 3: The value of percent of control at 10^−7 M was more than 60% or the value of IC50 was more than 200 nM.)
Cc1nc(N[C@H]2CC[C@@H](NC(=O)Cc3sc(-c4ccccc4)nc3-c3ccc(Cl)cc3)CC2)cc(N(C)C)n1 [compound 335]	3 (Class 3: The value of percent of control at 10^−7 M was more than 60% or the value of IC50 was more than 200 nM.)
Cc1nc(N[C@H]2CC[C@@H](NC(=O)CSCc3ccccc3)CC2)cc(N(C)C)n1 [compound 336]	3 (Class 3: The value of percent of control at 10^−7 M was more than 60% or the value of IC50 was more than 200 nM.)
Cc1nc(N[C@H]2CC[C@@H](NC(=O)CCCc3ccccc3)CC2)cc(N(C)C)n1 [compound 337]	3 (Class 3: The value of percent of control at 10^−7 M was more than 60% or the value of IC50 was more than 200 nM.)
Cc1nc(N[C@H]2CC[C@@H](NC(=O)Cc3csc4ccccc34)CC2)cc(N(C)C)n1 [compound 338]	3 (Class 3: The value of percent of control at 10^−7 M was more than 60% or the value of IC50 was more than 200 nM.)

SMILES	class
Cc1nc(N[C@H]2CC[C@@H](NC(=O)CC3Cc4ccccc4C3)CC2)cc(N(C)C)n1 [compound 339]	3 (Class 3: The value of percent of control at 10^−7 M was more than 60% or the value of IC50 was more than 200 nM.)
COc1ccc(CCCC(=O)N[C@H]2CC[C@@H](Nc3cc(N(C)C)nc(C)n3)CC2)cc1OC [compound 340]	3 (Class 3: The value of percent of control at 10^−7 M was more than 60% or the value of IC50 was more than 200 nM.)
Cc1nc(N[C@H]2CC[C@@H](NC(=O)CCCc3ccc4c(c3)OCCO4)CC2)cc(N(C)C)n1 [compound 341]	3 (Class 3: The value of percent of control at 10^−7 M was more than 60% or the value of IC50 was more than 200 nM.)
Cc1ccc(S(=O)(=O)n2ccc(C(=O)N[C@H]3CC[C@@H](Nc4cc(N(C)C)nc(C)n4)CC3)c2)cc1 [compound 342]	3 (Class 3: The value of percent of control at 10^−7 M was more than 60% or the value of IC50 was more than 200 nM.)
Cc1nc(N[C@H]2CC[C@@H](NC(=O)c3ccc(S(C)(=O)=O)cc3)CC2)cc(N(C)C)n1 [compound 343]	3 (Class 3: The value of percent of control at 10^−7 M was more than 60% or the value of IC50 was more than 200 nM.)
CC(=O)c1ccc(C(=O)N[C@H]2CC[C@@H](Nc3cc(N(C)C)nc(C)n3)CC2)s1 [compound 344]	3 (Class 3: The value of percent of control at 10^−7 M was more than 60% or the value of IC50 was more than 200 nM.)
CSc1sc(C(=O)N[C@H]2CC[C@@H](Nc3cc(N(C)C)nc(C)n3)CC2)c(Cl)c1S(=O)(=O)C(C)C [compound 345]	3 (Class 3: The value of percent of control at 10^−7 M was more than 60% or the value of IC50 was more than 200 nM.)
Cc1nc(N[C@H]2CC[C@@H](NC(=O)c3ccc(S(C)(=O)=O)s3)CC2)cc(N(C)C)n1 [compound 346]	3 (Class 3: The value of percent of control at 10^−7 M was more than 60% or the value of IC50 was more than 200 nM.)
Cc1nc(N[C@H]2CC[C@@H](NC(=O)c3ccc(-c4cnco4)cc3)CC2)cc(N(C)C)n1 [compound 347]	3 (Class 3: The value of percent of control at 10^−7 M was more than 60% or the value of IC50 was more than 200 nM.)
Cc1nc(N[C@H]2CC[C@@H](NC(=O)c3cn(S(=O)(=O)c4ccccc4)c4ccccc34)CC2)cc(N(C)C)n1 [compound 348]	3 (Class 3: The value of percent of control at 10^−7 M was more than 60% or the value of IC50 was more than 200 nM.)
Cc1nc(N[C@H]2CC[C@@H](NC(=O)C(=O)c3ccccc3)CC2)cc(N(C)C)n1 [compound 349]	3 (Class 3: The value of percent of control at 10^−7 M was more than 60% or the value of IC50 was more than 200 nM.)
Cc1cc(C)c(C(=O)C(=O)N[C@H]2CC[C@@H](Nc3cc(N(C)C)nc(C)n3)CC2)c(C)c1 [compound 350]	3 (Class 3: The value of percent of control at 10^−7 M was more than 60% or the value of IC50 was more than 200 nM.)
Cc1nc(N[C@H]2CC[C@@H](NC(=O)C3C[C@@H](c4ccccc4)CC[C@H]3C(=O)c3ccccc3)CC2)cc(N(C)C)n1 (stereo partly drawn) [compound 351]	3 (Class 3: The value of percent of control at 10^−7 M was more than 60% or the value of IC50 was more than 200 nM.)
Cc1nc(N[C@H]2CC[C@@H](NC(=O)C=C3c4ccccc4-c4ccccc43)CC2)cc(N(C)C)n1 [compound 352]	3 (Class 3: The value of percent of control at 10^−7 M was more than 60% or the value of IC50 was more than 200 nM.)
Cc1nc(N[C@H]2CC[C@@H](NCc3ccc4c(c3)C(=O)c3ccccc3C4=O)CC2)cc(N(C)C)n1 [compound 353]	3 (Class 3: The value of percent of control at 10^−7 M was more than 60% or the value of IC50 was more than 200 nM.)
Cc1nc(N[C@H]2CC[C@@H](NCc3ccccc3)CC2)cc(N(C)C)n1 [compound 354]	3 (Class 3: The value of percent of control at 10^−7 M was more than 60% or the value of IC50 was more than 200 nM.)
Cc1nc(N[C@H]2CC[C@@H](NCc3ccc(-c4ccccc4)cc3)CC2)cc(N(C)C)n1 [compound 355]	3 (Class 3: The value of percent of control at 10^−7 M was more than 60% or the value of IC50 was more than 200 nM.)
Cc1nc(N[C@H]2CC[C@@H](NCc3ccc(C(C)(C)C)cc3)CC2)cc(N(C)C)n1 [compound 356]	3 (Class 3: The value of percent of control at 10^−7 M was more than 60% or the value of IC50 was more than 200 nM.)
Cc1nc(N[C@H]2CC[C@@H](NCc3cc4ccccc4s3)CC2)cc(N(C)C)n1 [compound 357]	3 (Class 3: The value of percent of control at 10^−7 M was more than 60% or the value of IC50 was more than 200 nM.)
